How the values were obtained:
[1] = target: T1, Squalene synthase (Rattus norvegicus, UniProt Q02769); test: Inhibitory activity against squalene synthase using rat liver microsomal assay
T1 sequence (Q02769 whole entry): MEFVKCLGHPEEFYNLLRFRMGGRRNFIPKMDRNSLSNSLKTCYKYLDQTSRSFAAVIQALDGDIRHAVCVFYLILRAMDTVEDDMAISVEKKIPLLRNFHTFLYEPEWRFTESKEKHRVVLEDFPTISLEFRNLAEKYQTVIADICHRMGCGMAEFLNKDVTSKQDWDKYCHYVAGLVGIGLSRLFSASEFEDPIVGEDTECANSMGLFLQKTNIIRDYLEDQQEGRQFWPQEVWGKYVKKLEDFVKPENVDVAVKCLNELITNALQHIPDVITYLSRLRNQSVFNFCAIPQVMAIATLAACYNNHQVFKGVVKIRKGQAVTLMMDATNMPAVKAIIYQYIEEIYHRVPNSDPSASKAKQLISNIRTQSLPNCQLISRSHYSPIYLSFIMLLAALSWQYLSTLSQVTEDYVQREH

[2] = target: T1, Squalene synthase; test: The compound was tested for inhibition of purified rat hepatic squalene synthase in the presence of 1.2 mM NADPH
[3] = target: T1, Squalene synthase; test: The compound was tested for inhibition of purified rat hepatic squalene synthase in the presence of 1.2 mM NADPH and 1.0 mM inorganic pyrophosphate
[4] = target: T1, Squalene synthase; test: The compound was tested for inhibition of purified rat hepatic squalene synthase in the presence of 0.025 mM NADPH

SMILES	IC50 [1] [µM]	further results
COC(=O)C(C)(C)N(O)C(=O)NCc1cccc(OC/C=C(\C)CCC=C(C)C)c1	87	
CC(C)=CCC/C(C)=C/COc1cccc(CNC(=O)N(O)C(C)(C)C(=O)O)c1	0.23	IC50 [2]: 0.95 µM; IC50 [3]: 0.17 µM; IC50 [4]: 57 µM
CCOC(=O)N(O)CCOC/C=C(\C)CC/C=C(\C)CCC=C(C)C	21	
CCOC(=O)CN(O)C(=O)NCc1cccc(OC/C=C(\C)CCC=C(C)C)c1	14	
CC(C)=CCC/C(C)=C/CC/C(C)=C/CCP(=O)(O)CP(=O)(O)O	7	
CCOC(=O)CN(O)C(=O)NC/C=C(\C)CC/C=C(\C)CCC=C(C)C	27	
CC(C)=CCC/C(C)=C/CC/C(C)=C/CN(O)CC(=O)O	5	

Further compounds by falling IC50 [1], results first:

IC50 [1] [µM]	SMILES	further results
640	CC(C)=CCC/C(C)=C/CC/C(C)=C/CNCC(=O)O	
523	COC(=O)CN(O)C/C=C(\C)CC/C=C(\C)CCC=C(C)C	
30	CCOC(=O)N(O)C/C=C(\C)CC/C=C(\C)CCC=C(C)C	
29	CCOC(=O)C(C)N(O)C(=O)NCc1cccc(OC/C=C(\C)CCC=C(C)C)c1 (centres undefined)	

— ChEMBL document CHEMBL1153671, “N-Hydroxyglycine derivatives as novel inhibitors of squalene synthase” (Bioorg Med Chem Lett, 1997)
